The target in data set [1] is T1, CRF receptor (Rattus norvegicus, UniProt P35353).
T1 construct: 100 μl of membrane suspension as prepared above to give a total reaction volume of 300 μl; from tissue; host or cells: rat cerebral cortex membrane homogenate
T1 sequence (P35353 24-415): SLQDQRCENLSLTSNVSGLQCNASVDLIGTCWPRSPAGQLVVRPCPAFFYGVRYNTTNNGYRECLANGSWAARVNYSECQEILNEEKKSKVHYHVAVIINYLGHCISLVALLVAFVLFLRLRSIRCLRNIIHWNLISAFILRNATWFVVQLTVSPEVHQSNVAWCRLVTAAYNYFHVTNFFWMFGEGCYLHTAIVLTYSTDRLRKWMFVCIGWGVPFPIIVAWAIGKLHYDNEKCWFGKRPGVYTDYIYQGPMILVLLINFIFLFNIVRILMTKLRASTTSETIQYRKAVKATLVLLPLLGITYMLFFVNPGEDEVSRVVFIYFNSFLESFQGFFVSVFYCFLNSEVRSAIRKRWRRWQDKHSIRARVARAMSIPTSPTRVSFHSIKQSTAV
Kind of data set: In vitro CRF receptor binding assay (competition with [125I] ovine CRF, rat cortex membranes). The following applies: read-out: Inhibition Ki.

Experimental findings from US6342503B1, “1N-alkyl-n-arylpyrimidinamines and derivatives thereof” (DuPont Pharmaceuticals Company, priority 1993, dated 2002) are described below.

By Ki is commonly meant the dissociation constant of the complex between target and ligand, obtained from inhibition or displacement. The melting point is the temperature of the solid-liquid transition.

`CCCCc1ccc(N(CCC)c2nc(C)cc(C)n2)c(Br)c1` [compound 20] showed a melting point of 49 to 50 °C. Besides, the inhibition constant (Ki) in data set [1] is below 500 nM.
`CCN(c1nc(C)cc(C(=O)NCc2ccco2)n1)c1ccc(C(C)C)cc1Br` [compound 270]: the melting point is 87 to 88 °C. Moreover, the Ki in data set [1] lay in the range of 2000 to 10000 nM.
